From patent US10226048B2 (priority 2014, dated 2019)
Where two headings read alike, the source gives them in different places.

Assays:
[1] = tested on: Staphylococcus Epidermidis; conditions: 2% HP
E-Coli = conditions: 2% HP
[2] = Dissociation of PAA in aqueous solution; conditions: pH 9.5
[3] = Stability of PAA/NVPA in alkaline solution (ion-exchange chromatography); assay type: physicochemical; conditions: for total PAA decomposed: pH adjusted to 9.3 with sodium hydroxide
Protocol: PAA is not very stable in both acidic and basic solutions (reactions 2 and 3), and is decomposed into acetic acid and oxygen easily. Additionally, PAA is decomposed by metal catalysis and hydrolysis, respectively, in an aqueous solution. […] When sodium hydroxide was used to adjust the pH of PAA solution to 9.3, about 80% of the total PAA were decomposed in 1 minute, with more than 90% being decomposed in 5 minutes. (FIG. 4).
Rapid decomposition of PAA will result in a loss of the disinfecting ability. Thus, it is critical to maintain PAA relatively stable in an alkaline solution. When pH was adjusted partially by sodium carbonate, greater than 90% of the total PAA was maintained in the 10 minutes (FIG. 4). The addition of a metal complexing agent, such as sodium pyrophosphate, etc., may be used to stabilize PAA. It is very important to maintain a relatively long pot-life of NVPA, because some microorganisms are difficult to being killed. Such microorganisms may require at least 3-5-minutes of contact time with the disinfecting detergent. Since NVPA is not very stable, the formulation of the invention is divided to two parts to preserve a long shelf life of PAA. The two parts will be mixed just prior to use. After mixing, PAA will be converted to NVPA and 90% of the total PAA will remain for at least 10 minutes.
FIG. 4. The pH of PAA solution was 9.3. The initial concentrations of PAA and HP were 0.2% (w/w %) and 4% (w/w %), respectively. The pH of the solution was adjusted by sodium hydroxide solution or sodium phosphate solution, and sodium carbonate or a stabilizer such like sodium pyrophosphate was used to stabilize PAA. The quantitative determination of PAA/NVPA was performed by ion-exchange chromatography.

Row | Compound | Disinfecting efficacy ([1]; contact time 1 minute) [%] | Disinfecting efficacy ([1]; contact time 2 minutes) [%] | Disinfecting efficacy (E-Coli; contact time 1 minute) [%] | Disinfecting efficacy (E-Coli; contact time 2 minutes) [%] | share of initial PAA concentration existing in this state [2] [%] | total PAA maintained ([3]; pH adjusted partially by sodium carbonate, in 10 minutes) | total PAA decomposed ([3]; in 1 minute) | total PAA decomposed ([3]; in 5 minutes)
1 | OO [HP, hydrogen peroxide] | ~90 | ~99 | ~90 | ~99 | – | – | – | –
2 | CC(=O)OO [NVPA, non-volatile peracetate] | – | – | – | – | 95 | – | – | –
3 | CC(=O)OO [PAA, Peracetic Acid] | – | – | – | – | 5 | greater than 90% | about 80% | more than 90%
